Marks after values point to notes of the source that are not given here.
Tested on: male patients diagnosed with autism
Assay: Study HT 02-121: adverse events
Assay type: in vivo, human
Method: The purpose of this clinical study (referred to herein as “Study HT 02-121”; i.e., Example 6) was to determine whether L1-79 was a well-tolerated and clinically useful agent for the treatment of ASD, and to assess the PK and pharmacodynamics (PD) of four weeks of TID dosing with L1-79. […] The first cohort of 20 patients was comprised of three groups of patients: The first group of five patients received open-label L1-79 100 mg TID and underwent PK and EKG assessments. […] The PK and safety data from the open-label L1-79 100 mg TID group was submitted to FDA for review and acceptance before the second cohort was enrolled. The second cohort was procedurally identical to the first. The second cohort of 20 patients was comprised of the same three groups of patients but a dose of 200 mg TID was used instead of 100 mg TID. The key inclusion criteria were as follows: […] Safety was the primary endpoint of the study. The following safety endpoints were assessed: ECGs, physical exams, laboratory evaluations (hematology, chemistry and urinalysis), vital signs, including orthostatic blood pressure, adverse events (AEs) and concomitant medications. The incidence of AEs by primary system organ class and preferred term is presented in Table 7, and a listing of the AEs reported during the study is presented in Table 8. All AEs were mild to moderate in intensity and self-limited.

CC(N)(Cc1ccc(O)cc1)C(=O)O (racemic) [L1-79, α-methyl-DL-tyrosine]
2 [e]: Number of AE events: Crystal urine present (DB 200 mg TID, N = 11) | Number of AE events: Infections and infestations (DB 200 mg TID, N = 11)
6(54.5) n(%): Incidence of AEs: All primary SOC (DB 200 mg TID, N = 11)
1(9.1) n(%): Incidence of AEs: Anxiety (DB 200 mg TID, N = 11) | Incidence of AEs: Blood TSH † (DB 200 mg TID, N = 11) | Incidence of AEs: Ear infection (DB 200 mg TID, N = 11) | Incidence of AEs: Generalized tonic-clonic seizure (DB 200 mg TID, N = 11) | Incidence of AEs: Nervous system disorders (DB 200 mg TID, N = 11) | Incidence of AEs: Otitis externa (DB 200 mg TID, N = 11) | Incidence of AEs: Psychiatric disorders (DB 200 mg TID, N = 11)
1 [e]: Number of AE events: All primary SOC (DB 100 mg TID, N = 10) | Number of AE events: Nervous system disorders (DB 100 mg TID, N = 10) | Number of AE events: Syncope (DB 100 mg TID, N = 10) | Number of AE events: Anxiety (DB 200 mg TID, N = 11) | Number of AE events: Blood TSH † (DB 200 mg TID, N = 11) | Number of AE events: Ear infection (DB 200 mg TID, N = 11) | Number of AE events: Generalized tonic-clonic seizure (DB 200 mg TID, N = 11) | Number of AE events: Nervous system disorders (DB 200 mg TID, N = 11) | Number of AE events: Otitis externa (DB 200 mg TID, N = 11) | Number of AE events: Psychiatric disorders (DB 200 mg TID, N = 11)
0[0] n(%): Incidence of AEs: Agitation (DB 100 mg TID, N = 10) | Incidence of AEs: Amylase † (DB 100 mg TID, N = 10) | Incidence of AEs: Anxiety (DB 100 mg TID, N = 10) | Incidence of AEs: Blood TSH † (DB 100 mg TID, N = 10) | Incidence of AEs: Confusional state (DB 100 mg TID, N = 10) | Incidence of AEs: Cough (DB 100 mg TID, N = 10) | Incidence of AEs: Crystal urine present (DB 100 mg TID, N = 10) | Incidence of AEs: Diarrhoea (DB 100 mg TID, N = 10) | Incidence of AEs: Ear infection (DB 100 mg TID, N = 10) | Incidence of AEs: Fatigue (DB 100 mg TID, N = 10) | Incidence of AEs: GI disorders (DB 100 mg TID, N = 10) | Incidence of AEs: General disorders & administration site conditions (DB 100 mg TID, N = 10) | Incidence of AEs: Generalized tonic-clonic seizure (DB 100 mg TID, N = 10) | Incidence of AEs: Immune system disorders (DB 100 mg TID, N = 10) | Incidence of AEs: Infections and infestations (DB 100 mg TID, N = 10) | Incidence of AEs: International self-injury (DB 100 mg TID, N = 10) | Incidence of AEs: Investigations (DB 100 mg TID, N = 10) | Incidence of AEs: Irritability (DB 100 mg TID, N = 10) | Incidence of AEs: Nasopharyngitis (DB 100 mg TID, N = 10) | Incidence of AEs: Otitis externa (DB 100 mg TID, N = 10) | Incidence of AEs: Psychiatric disorders (DB 100 mg TID, N = 10) | Incidence of AEs: Pyrexia (DB 100 mg TID, N = 10) | Incidence of AEs: Renal and urinary disorders (DB 100 mg TID, N = 10) | Incidence of AEs: Respiratory, thoracic & mediastinal disorders (DB 100 mg TID, N = 10) | Incidence of AEs: Seasonal allergy (DB 100 mg TID, N = 10) | Incidence of AEs: Urinary incontinence (DB 100 mg TID, N = 10) | Incidence of AEs: Agitation (DB 200 mg TID, N = 11) | Incidence of AEs: Amylase † (DB 200 mg TID, N = 11) | Incidence of AEs: Confusional state (DB 200 mg TID, N = 11) | Incidence of AEs: Cough (DB 200 mg TID, N = 11) | Incidence of AEs: Fatigue (DB 200 mg TID, N = 11) | Incidence of AEs: General disorders & administration site conditions (DB 200 mg TID, N = 11) | Incidence of AEs: Immune system disorders (DB 200 mg TID, N = 11) | Incidence of AEs: International self-injury (DB 200 mg TID, N = 11) | Incidence of AEs: Irritability (DB 200 mg TID, N = 11) | Incidence of AEs: Nasopharyngitis (DB 200 mg TID, N = 11) | Incidence of AEs: Pyrexia (DB 200 mg TID, N = 11) | Incidence of AEs: Renal and urinary disorders (DB 200 mg TID, N = 11) | Incidence of AEs: Respiratory, thoracic & mediastinal disorders (DB 200 mg TID, N = 11) | Incidence of AEs: Seasonal allergy (DB 200 mg TID, N = 11) | Incidence of AEs: Syncope (DB 200 mg TID, N = 11) | Incidence of AEs: Urinary incontinence (DB 200 mg TID, N = 11) | Incidence of AEs: Agitation (OL 100 mg TID, N = 5) | Incidence of AEs: Amylase † (OL 100 mg TID, N = 5) | Incidence of AEs: Blood TSH † (OL 100 mg TID, N = 5) | Incidence of AEs: Cough (OL 100 mg TID, N = 5) | Incidence of AEs: Crystal urine present (OL 100 mg TID, N = 5) | Incidence of AEs: Diarrhoea (OL 100 mg TID, N = 5) | Incidence of AEs: Ear infection (OL 100 mg TID, N = 5) | Incidence of AEs: Fatigue (OL 100 mg TID, N = 5) | Incidence of AEs: GI disorders (OL 100 mg TID, N = 5) | Incidence of AEs: General disorders & administration site conditions (OL 100 mg TID, N = 5) | Incidence of AEs: Generalized tonic-clonic seizure (OL 100 mg TID, N = 5) | Incidence of AEs: Immune system disorders (OL 100 mg TID, N = 5) | Incidence of AEs: Infections and infestations (OL 100 mg TID, N = 5) | Incidence of AEs: Investigations (OL 100 mg TID, N = 5)
1(10.0) n(%): Incidence of AEs: All primary SOC (DB 100 mg TID, N = 10) | Incidence of AEs: Nervous system disorders (DB 100 mg TID, N = 10) | Incidence of AEs: Syncope (DB 100 mg TID, N = 10)
2(40.0) n(%): Incidence of AEs: All primary SOC (OL 100 mg TID, N = 5) | Incidence of AEs: International self-injury (OL 100 mg TID, N = 5) | Incidence of AEs: Irritability (OL 100 mg TID, N = 5)
safe and well tolerated: safety and tolerability (28-day treatment period)
3 [e]: Number of AE events: Diarrhoea (DB 200 mg TID, N = 11) | Number of AE events: GI disorders (DB 200 mg TID, N = 11) | Number of AE events: Investigations (DB 200 mg TID, N = 11)
2(18.2) n(%): Incidence of AEs: Crystal urine present (DB 200 mg TID, N = 11) | Incidence of AEs: Infections and infestations (DB 200 mg TID, N = 11)
10 [e]: Number of AE events: All primary SOC (DB 200 mg TID, N = 11)
3(27.3) n(%): Incidence of AEs: Diarrhoea (DB 200 mg TID, N = 11) | Incidence of AEs: GI disorders (DB 200 mg TID, N = 11) | Incidence of AEs: Investigations (DB 200 mg TID, N = 11)
1(20.0) n(%): Incidence of AEs: Anxiety (OL 100 mg TID, N = 5) | Incidence of AEs: Confusional state (OL 100 mg TID, N = 5)
